Experimental data as given in US11332512B2, “Peptides and combination of peptides for use in immunotherapy against various tumors” (Immatics Biotechnologies GmbH, priority 2015, dated 2022).

How the values were obtained:
CD8+ T cells = assay: In vitro immunogenicity: T-cell priming with aAPCs loaded with peptide/MHC and anti-CD28, pMHC multimer readout; format: cell-based, human; settings: percentage of positive wells among evaluable, HLA-A*02 restricted peptides
Source text: In order to obtain information regarding the immunogenicity of the TUMAPs of the present invention, the inventors performed investigations using an in vitro T-cell priming assay based on repeated stimulations of CD8+ T cells with artificial antigen presenting cells (aAPCs) loaded with peptide/MHC complexes and anti-CD28 antibody.
In order to perform in vitro stimulations by artificial antigen presenting cells loaded with peptide-MHC complex (pMHC) and anti-CD28 antibody, the inventors first isolated CD8+ T cells from fresh HLA-A*02 leukapheresis products via positive selection using CD8 microbeads (Miltenyi Biotec, Bergisch-Gladbach, Germany) of healthy donors obtained from the University clinics Mannheim, Germany, after informed consent. PBMCs and isolated CD8+ lymphocytes were incubated in T-cell medium (TCM) until use consisting of RPMI-Glutamax (Invitrogen, Karlsruhe, Germany) supplemented with 10% heat inactivated human AB serum (PAN-Biotech, Aidenbach, Germany), 100 U/ml Penicillin/100 μg/ml Streptomycin (Cambrex, Cologne, Germany), 1 mM sodium pyruvate (CC Pro, Oberdorla, Germany), 20 μg/ml Gentamycin (Cambrex). 2.5 ng/ml IL-7 (PromoCell, Heidelberg, Germany) and 10 U/ml IL-2 (Novartis Pharma, Nürnberg, Germany) were also added to the TCM at this step. Generation of pMHC/anti-CD28 coated beads, T-cell stimulations and readout was performed in a highly defined in vitro system using four different pMHC molecules per stimulation condition and 8 different pMHC molecules per readout condition.
The purified co-stimulatory mouse IgG2a anti human CD28 Ab 9.3 (Jung et al., 1987) was chemically biotinylated using Sulfo-N-hydroxysuccinimidobiotin as recommended by the manufacturer (Perbio, Bonn, Germany). Beads used were 5.6 μm diameter streptavidin coated polystyrene particles (Bangs Laboratories, Illinois, USA).
pMHC used for positive and negative control stimulations were A*0201/MLA-001 (peptide […] (SEQ ID NO. 289) from modified Melan-A/MART-1) and A*0201/DDX5-001 ([…] from DDX5, SEQ ID NO. 290), respectively.
800.000 beads/200 μl were coated in 96-well plates in the presence of 4×12.5 ng different biotin-pMHC, washed and 600 ng biotin anti-CD28 were added subsequently in a volume of 200 μl. Stimulations were initiated in 96-well plates by co-incubating 1×10^6 CD8+ T cells with 2×10^5 washed coated beads in 200 μl TCM supplemented with 5 ng/ml IL-12 (PromoCell) for 3 days at 37° C. Half of the medium was then exchanged by fresh TCM supplemented with 80 U/ml IL-2 and incubating was continued for 4 days at 37° C. This stimulation cycle was performed for a total of three times. For the pMHC multimer readout using 8 different pMHC molecules per condition, a two-dimensional combinatorial coding approach was used as previously described (Andersen et al., 2012) with minor modifications encompassing coupling to 5 different fluorochromes. Finally, multimeric analyses were performed by staining the cells with Live/dead near IR dye (Invitrogen, Karlsruhe, Germany), CD8-FITC antibody clone SK1 (BD, Heidelberg, Germany) and fluorescent pMHC multimers. For analysis, a BD LSRII SORP cytometer equipped with appropriate lasers and filters was used. Peptide specific cells were calculated as percentage of total CD8+ cells. Evaluation of multimeric analysis was done using the FlowJo software (Tree Star, Oregon, USA). In vitro priming of specific multimer+CD8+ lymphocytes was detected by comparing to negative control stimulations.

HLA-A*02:01 = HLA-A*02:01 (Homo sapiens, UniProt P04439, D140Y/D185E/D98H/E176V/E277Q/G131W/G231S/I119V/I121R/I166T/I218V/L300P/L318F/N151K/N90K/P208A/P217A/Q86G/Q94H/R138H/R169H/T345S); assay: MHC binding assay: UV-ligand exchange with beta2m ELISA (peptide exchange yield); settings: binding to HLA-A*02:01, β2m ELISA
Method in brief: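 UV-exchange pMHC monomers, 100-fold diluted → streptavidin capture 1 h 37 °C → HRP anti-β2m 2 ug/ml 1 h 37 °C → TMB, A450. Yield from HLA-A*02:01/MLA-001 monomer standard curve, 15-500 ng/ml. Only stably bound peptides keep β2m-containing complexes intact.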

Peptide exchange (MHC class I binding score, peptide exchange yield) (HLA-A*02:01) | Substance | Wells positive [%] (CD8+ T cells)
+++ (= ≥50% = +++) | 260 (ALNESLVEC; listed as Homo sapiens) [compound 260] | + (<20% = +)
+++ (= ≥50% = +++) | 246 (ALAGIVTNV; listed as Homo sapiens) [compound 246] | + (<20% = +)

Second part, the substance before the results:

Substance | Peptide exchange (MHC class I binding score, peptide exchange yield) (HLA-A*02:01) | Wells positive [%] (CD8+ T cells)
89 (SLAETIFIV; listed as Homo sapiens) [compound 89] | +++ (= ≥50% = +++) | + (<20% = +)
27 (GLLGKVTSV; listed as Homo sapiens) [compound 27] | +++ (= ≥50% = +++) | + (<20% = +)
236 (KMSELQTYV; listed as Homo sapiens) [compound 236] | +++ (= ≥50% = +++) | + (<20% = +)
50 (ILLSVLHQL; listed as Homo sapiens) [compound 50] | +++ (= ≥50% = +++) | + (<20% = +)
